US20250352555A1, “METHOD OF INCREASING IMMUNE CELL ACTIVATION AND/OR TREATING CANCER USING DIBENZOXAZEPINONES” (VASCULAR THERAPEUTICS PTY LTD, priority 2022, published 2025)

Legend:
p-ERK = assay: Western blotting time course for p-ERK, Jurkat T cells; type: cell-based, human; conditions: Western blot time course
Procedure: (§1) Western blotting. Cells were treated with compounds and times indicated and total cell lysates were prepared in RIPA buffer. Lysates (10 μg) were resolved by SDS-PAGE and transferred to Immobilon-P polyvinylidene difluoride (PVDF) membranes (Millipore, USA).
Membranes were blocked with 5% skim milk and incubated with rabbit monoclonal anti-c-Jun (Abcam, cat. no. ab32137; mouse, rat and human reactive) antibody, rabbit monoclonal anti-PD-1 (Abcam, cat. no. ab214421) antibody, mouse monoclonal β-actin antibody (Sigma-Aldrich, cat. no. A5316), anti-phospho-SAPK/JNK (Thr^183/Tyr^185) (98F2) (CST, cat. no. 4671) antibody, anti-phospho-p44/42 MAPK (ERK1/2) (Thr^202/Tyr^204) (D13.14.4E) (CST, cat. no. 4370) antibody, anti-phospho-p38 MAPK (Thr^180/Tyr^182) (D3F9) (CST, cat. no. 4511) antibody, anti-SAPK/JNK antibody (CST, cat. no. 9252), anti-p44/42 MAPK (ERK1/2) (137F5) antibody (CST, cat. no. 4695), anti-p38 MAPK antibody (CST, cat. no. 9212), anti-DUSP8 antibody (Abcam, cat. no. ab198175) or anti-c-MAF (BLR045F) antibody (Abcam, cat. no. ab243901). […] Chemiluminescence was detected using the Western Lightning Chemiluminescence system (Thermo Scientific, USA) and ImageQuant™ LAS 4000 biomolecular imager (GE Healthcare Life Sciences, USA). Band intensity in images generated with the LAS 4000 was quantified using NIH Image J. […]

p-ERK (Thr^202/Tyr^204) = assay: Western blotting for p-ERK, MeWo melanoma cells; type: cell-based, human; conditions: 10 or 100 nM, 24 h
Procedure: as §1
Membranes were blocked with 5% skim milk and incubated with rabbit monoclonal anti-c-Jun (Abcam, cat. no. ab32137; mouse, rat and human reactive) antibody, rabbit monoclonal anti-PD-1 (Abcam, cat. no. ab214421) antibody, mouse monoclonal β-actin antibody (Sigma-Aldrich, cat. no. A5316), anti-phospho-SAPK/JNK (Thr^183/Tyr^185) (98F2) (CST, cat. no. 4671) antibody, anti-phospho-p44/42 MAPK (ERK1/2) (Thr^202/Tyr^204) (D13.14.4E) (CST, cat. no. 4370) antibody, anti-phospho-p38 MAPK (Thr^180/Tyr^182) (D3F9) (CST, cat. no. 4511) antibody, anti-SAPK/JNK antibody (CST, cat. no. 9252), anti-p44/42 MAPK (ERK1/2) (137F5) antibody (CST, cat. no. […] Chemiluminescence was detected using the Western Lightning Chemiluminescence system (Thermo Scientific, USA) and ImageQuant™ LAS 4000 biomolecular imager (GE Healthcare Life Sciences, USA). Band intensity in images generated with the LAS 4000 was quantified using NIH Image J.
The effect of BT2 on ERK phosphorylation (p-ERK) was evaluated in human melanoma cells given that MAP kinase activation is key to melanoma progression and the paucity of clinically approved ERK inhibitors. […]

B16F10 melanoma = assay: Melanoma growth in C57BL/6J mice bearing s.c. B16F10 tumors; type: in vivo, mouse
Procedure: Melanoma growth studies in mice. Six-to-eight week old C57BL/6J mice (sourced from Australian Resource Centre, Perth) were inoculated subcutaneously (s.c.) with B16F10 cells (1×10^5 cells/mouse in 100 μl DMEM containing 10% FBS with 50% Matrigel). InVivoPlus anti-mouse PD-1 (CD279) (BioXCell, BP0033-2) or InVivoPlus polyclonal Armenian hamster IgG (Bio X Cell, BP0091) was administered intraperitoneally (i.p.) (100 μg) twice a week. Treatment commenced on Day 7.
Alternatively, BT2 was suspended at 10 mg/ml in vehicle (saline containing 0.5% (v/v) Tween 80 and 0.01% (v/v) DMSO) and sonicated prior to administration. Vehicle or BT2 was administered i.p. (20 ml/kg and 200 mg/kg, respectively) once a day on a 5 days-on/2 days-off schedule. Treatment commenced when tumors were palpable on Day 5.
Tumors were measured by length and width in mm twice per week for MDA-MB-435 in SCID mice and by length, width and height in mm once per day for B16F10 in C57BL/6J mice. Tumor volumes were calculated using formula V=(L×W×H×π)/6 (B16F10) or V=L×W×W/2 (MDA-MB-435). If a second tumor was detected in an animal, both tumor volumes were measured and their volumes combined. Animal protocols were approved by the Explora Biolabs' Institutional Animal Care and Use Committee (IACUC) and the UNSW Animal Care and Ethics Committee.
The preceding xenograft studies showing anti-tumor effects in immunocompromised mice when BT2 is delivered intratumorally (i.t.) but not systemically (i.p.) led the inventors to hypothesize that BT2 could rely upon an active immune system in order to effect tumor growth inhibition. Therefore, the effect of BT2 was tested in an immunocompetent mouse model of melanoma growth using B16F10 melanoma. […]
To assess the effect of BT2 in the same model, C57BL/6J mice bearing s.c. B16F10 tumors were administered with BT2 or vehicle (200 mg/kg or 20 ml/kg, respectively, i.p.) once a day on a 5 days-on/2 days-off schedule. […] Tumor size on Day 17 measured using callipers (FIG. 10A) correlated with isolated weighed tumors (FIG. 10B).

CCOC(=O)Nc1ccc2c(c1)C(=O)N(CC)c1ccccc1O2 [BT2, (10-ethyl-11-oxo-10,11-dihydro-dibenzo[b,f][1,4]oxazepin-2-yl)-carbamic acid ethyl ester]
levels of ERK phosphorylation (p-ERK): no effect | ERK phosphorylation (p-ERK, Western blot) (p-ERK (Thr^202/Tyr^204)): suppressed ERK phosphorylation | B16F10 tumor growth (volume) (B16F10 melanoma; C57BL/6J mice, 200 mg/kg i.p. once a day, 5 days-on/2 days-off, from Day 5): significant B16F10 growth inhibition from Day 9 | body weight (B16F10 melanoma; C57BL/6J mice, B16F10, 200 mg/kg i.p. once a day, 5 days-on/2 days-off): no adverse effect on body weight | mice with tumor size exceeding 500 mm^3 (Kaplan-Meier analysis) (B16F10 melanoma; Day 17, 200 mg/kg i.p., vehicle 75%): none
